Reference: patent publication US10618900B2, “5-aromatic alkynyl substituted benzamide compound and preparation method, pharmaceutical composition, and use thereof” (SHANGHAI INSTITUTE OF MATERIA MEDICA, CHINESE ACADEMY OF …, priority 2015, dated 2020)
Like-named read-outs stand apart in the source and are kept apart here.

Experiments:
Fmr1 knockout mice = experiment: Audiogenic epilepsy induced animal model of Fmr1 knockout mice; format: in vivo; details: for Seizure level: level 0-4
Description: In this study, we used audiogenic epilepsy induced animal model of Fmr1 knockout mice, and evaluated the efficacy of compound ZD043 with epilepsy seizure latency, seizure level and epileptic mortality as evaluation indexes.
Species, strain: Fmr1 knockout mice, FVB.129P2-Pde6b^+ Tyr^c-ch Fmr1^tm1Cgr/J (strain number 004624)
Test reagent and preparation method: before the experiment, 2.0 mg ZD043 was weighed in 2 mL centrifuge tube, 10 uL DMSO was taken with a precise pipette to dissolve ZD043 powder, then 10 uL Tween80 was added, mixed and 980 uL of saline was added, well mixed to form a suspension liquid.
Methods: The mice were weighed on the day of the experiment. The mice were injected intraperitoneally into 19 to 22 days Fmr1 knockout mice respectively according to the experimental design group 30 minutes before the convulsive test. The mice to be tested were transferred to a sonic seizure test laboratory, placed in a transparent organic glass bucket, and a high-decibel siren loudspeaker was fixed on the top of organic glass bucket. Before delivering the stimulate sound, the mouse was allowed to explore freely for 1 minute, then turn on the loudspeaker, video recorded for the whole process by surveillance system, sound stimulated (≥120 dB) for 3 minutes, or stop after the animal was died, and the experiment was ended.
Test method: After the end of the experiment, the epilepsy seizure latency (2 grade appearance was regarded as seizures, and the longest latency period was recorded as 300 seconds if no epilepsy was observed) and seizure level (Level 0: no epileptic response; Level 1: rapid running and continuous jump; Level 2: paroxysmal epilepsy; Level 3: tonic epilepsy; Level 4: death) were analyzed according to video record.
Data processing: calculate the mean and standard error of the epilepsy seizure latency and seizure level as well as the percentage of epilepsy death of each group.

mGluR5 = mGluR5 (Homo sapiens (Human), UniProt P41594); experiment: In vitro activity test for mGluR5, HDB Fluo-8 calcium fluorescence detection (FLIPR); format: cell-based; details: HEK293/mGluR5 cell line
Sequence of mGluR5 (P41594 21-1212): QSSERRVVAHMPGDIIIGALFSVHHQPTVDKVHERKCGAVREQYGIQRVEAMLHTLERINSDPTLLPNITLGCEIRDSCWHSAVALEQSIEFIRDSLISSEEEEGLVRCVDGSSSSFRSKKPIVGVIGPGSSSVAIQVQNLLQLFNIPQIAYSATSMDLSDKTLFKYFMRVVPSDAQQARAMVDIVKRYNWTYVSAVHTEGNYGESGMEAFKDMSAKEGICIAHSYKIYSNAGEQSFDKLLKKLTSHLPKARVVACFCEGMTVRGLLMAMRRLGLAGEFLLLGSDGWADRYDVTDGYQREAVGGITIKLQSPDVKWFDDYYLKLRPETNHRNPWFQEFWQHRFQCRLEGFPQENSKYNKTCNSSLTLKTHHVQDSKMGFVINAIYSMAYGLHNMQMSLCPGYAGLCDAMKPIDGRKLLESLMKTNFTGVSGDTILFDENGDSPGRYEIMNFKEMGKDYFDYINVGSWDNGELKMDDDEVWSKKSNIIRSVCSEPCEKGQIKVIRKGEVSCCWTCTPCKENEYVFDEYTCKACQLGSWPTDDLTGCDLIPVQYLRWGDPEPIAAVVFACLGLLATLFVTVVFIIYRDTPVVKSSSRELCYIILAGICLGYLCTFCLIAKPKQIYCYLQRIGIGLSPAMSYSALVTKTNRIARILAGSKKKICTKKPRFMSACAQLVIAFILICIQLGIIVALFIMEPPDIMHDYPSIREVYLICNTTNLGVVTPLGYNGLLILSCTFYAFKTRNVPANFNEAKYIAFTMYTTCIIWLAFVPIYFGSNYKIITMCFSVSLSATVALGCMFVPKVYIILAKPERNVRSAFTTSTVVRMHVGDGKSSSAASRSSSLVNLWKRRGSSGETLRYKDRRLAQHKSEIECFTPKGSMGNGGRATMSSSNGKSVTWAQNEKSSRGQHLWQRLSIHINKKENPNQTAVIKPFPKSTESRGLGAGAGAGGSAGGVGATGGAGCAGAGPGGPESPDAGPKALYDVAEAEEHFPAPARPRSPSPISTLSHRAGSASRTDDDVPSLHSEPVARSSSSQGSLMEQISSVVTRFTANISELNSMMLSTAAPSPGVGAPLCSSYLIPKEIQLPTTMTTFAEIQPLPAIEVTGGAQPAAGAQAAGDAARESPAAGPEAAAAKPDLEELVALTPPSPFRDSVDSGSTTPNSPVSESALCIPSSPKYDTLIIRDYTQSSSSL
Description: Experimental instrument: FLIPR Tetra real-time fluorescence imaging analysis system
Experimental method: HDB Fluo-8 calcium fluorescence detection method
Experimental principle: HDB Fluo-8 calcium ion fluorescence detection method is a fast, simple and reliable fluorescence detection method of intracellular calcium concentration changes. The Fluo 8-AM fluorescent dye is an […] derivative of Fluo 8 which can easily penetrate the cell membrane into the cell by culture. The fluorescent dye into the cell will be hydrolyzed by intracellular esterase, the resulting Fluo 8 cannot easily pass through the lipid bimolecular membrane as a polar molecule, and will retain in the cell, and combine with calcium (Ca^2+) to produce fluoresces.
Cells expressing GPCR receptor protein (mGluR5) were first calibrated with a calcium ion sensitive fluorescent probe and then stimulated with the compound. After stimulation, the activation of the receptor lead to the calcium ion mobilization, and the fluorescent probe captures the calcium ion to induce the fluorescence signal. The signal can be read by a fluorescent plate reader. The fluorescent plate reader contains a sampling head for compound addition, thus enabling the change of the fluorescence value of the compound be read in real time. […]

mGluR1 = mGluR1 (Homo sapiens (Human), UniProt Q13255); experiment: mGluR5/1 selectivity test, HEK293/mGluR1 cell line, Fluo-8 calcium; format: cell-based
Sequence of mGluR1 (Q13255 19-1194): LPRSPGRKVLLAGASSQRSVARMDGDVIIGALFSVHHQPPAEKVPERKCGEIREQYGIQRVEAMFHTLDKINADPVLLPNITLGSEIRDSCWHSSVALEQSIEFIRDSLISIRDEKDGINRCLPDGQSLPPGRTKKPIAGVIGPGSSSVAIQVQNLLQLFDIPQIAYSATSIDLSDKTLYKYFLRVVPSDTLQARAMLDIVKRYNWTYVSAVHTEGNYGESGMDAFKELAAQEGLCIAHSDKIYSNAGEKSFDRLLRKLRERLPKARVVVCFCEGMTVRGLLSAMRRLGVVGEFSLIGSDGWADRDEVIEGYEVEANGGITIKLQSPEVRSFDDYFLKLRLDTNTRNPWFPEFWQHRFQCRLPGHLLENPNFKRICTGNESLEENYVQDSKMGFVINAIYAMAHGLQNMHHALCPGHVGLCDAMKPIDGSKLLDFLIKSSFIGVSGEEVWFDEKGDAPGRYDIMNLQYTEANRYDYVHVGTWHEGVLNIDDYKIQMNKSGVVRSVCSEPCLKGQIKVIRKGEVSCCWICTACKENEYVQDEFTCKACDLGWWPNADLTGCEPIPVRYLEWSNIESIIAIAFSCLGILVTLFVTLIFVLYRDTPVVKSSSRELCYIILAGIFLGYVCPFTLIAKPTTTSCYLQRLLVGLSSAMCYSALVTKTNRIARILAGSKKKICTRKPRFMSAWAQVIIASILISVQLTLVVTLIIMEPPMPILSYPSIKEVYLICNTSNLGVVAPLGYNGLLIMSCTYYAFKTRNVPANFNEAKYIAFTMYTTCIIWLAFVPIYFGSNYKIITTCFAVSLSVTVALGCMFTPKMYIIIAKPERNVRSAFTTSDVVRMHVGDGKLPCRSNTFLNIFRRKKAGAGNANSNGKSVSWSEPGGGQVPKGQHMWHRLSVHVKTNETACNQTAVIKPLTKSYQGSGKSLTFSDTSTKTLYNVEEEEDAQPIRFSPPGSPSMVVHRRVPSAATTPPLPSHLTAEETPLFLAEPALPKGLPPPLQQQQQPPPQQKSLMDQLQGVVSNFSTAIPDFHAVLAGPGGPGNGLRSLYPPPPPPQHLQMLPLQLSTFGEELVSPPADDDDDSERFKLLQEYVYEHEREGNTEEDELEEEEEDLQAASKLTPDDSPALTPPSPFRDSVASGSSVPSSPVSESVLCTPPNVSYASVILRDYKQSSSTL
Description: Experimental material: HEK293/mGluR5 cell line, HEK293/mGluR1 cell line, Fluo-8 calcium ion fluorescent dye, positive control JNJ16259685

[1] = Determination of brain tissue content in rats; format: in vivo; details: rat
Description: Six healthy rats weighing 150-200 g were randomly divided into […] (n=3). The rats were given 10 mL/kg by gavage and intravenous injection, and the dose of gavage was 20 mg/kg, and the dose of intravenous administration was 10 mg/kg. The drug was formulated in DMSO/Tween 80/saline (5:5:90, v/v/v). The rats were fasted for 12 h before testing, and drinked water ad libitum. 2 h after administration, all rats ate together. […]
A physiological saline solution was added (1:10, weight:volume) and the mixture was sufficiently homogenized to form a homogenate. 100 uL homogenate was taken, and 300 uL dichloromethane:methanol (3:2) solution was added, mixed uniformly through vortex oscillation and centrifugated at 14000 rpm for 10 min. The clear liquor was taken. The sample was dried with nitrogen and stored in the 4° C. refrigerator.

mice [2] = experiment: Head twitches test (5-HTP induced); format: in vivo; details: 20 mg/kg, intraperitoneal, in 6 min, FIG. 2
Description: Experimental principle: Model Head Thrust Test (HTT) is first raised by Corne et al. in 1963, head twitches syndrome caused by 5-HT receptor excitement may be mediated through the 5-HT2 receptor. The head twitches behavior induced by 5-HTP in mice is more sensitive to antidepressants with different action mechanisms, such as citalopram, fluvoxamine and other 5-HT retake inhibitors, desipramine, maprotiline, nomifensine and other NA retake inhibitors and imipramine acting on both 5-HT and NA system.
Experimental method: 20-24 g male mice were selected. 3 h before the test, 100 mg/kg pargyline was intraperitoneal injected and then intraperitoneal injected with test drugs or saline. 5-HTP (5 mg/kg, ip) was injected 30 min later. After 10 min, the observation was started and the number of mice head twitches in 6 min was recorded. The numbers of the head twitches of experimental group and the saline control group were compared.

mice [3] = experiment: Mouse tail suspension experiment; format: in vivo; details: 20 mg/kg dose, within 6 min, FIG. 1
Description: Experimental principle: Tail Suspension Test (TST) is a classic method which can quickly evaluate the efficacy of antidepressant drugs, excitement drugs, and sedative drugs. The principle is to use the status that the mouse give up struggle and enter the unique depression status after the tail was suspended and the attempt to escape was failed.
Experimental method: 20-24 g male mice were selected and the site at 2 cm part from the end of the tail was attached to a horizontal stick, so that the animal entered inverted state, and it's head was about 5 cm from the table, and boards were hung on both sides to separate the animal's sight. The immobility time of the administration group and the control group within 6 min were compared.

Cc1nc(C#Cc2ccc(F)c(C(=O)Nc3cccnc3)c2)cs1 [ZD043]
Mortality (%) (Fmr1 knockout mice; 10 mg/kg intraperitoneal): 25%
Latency (Fmr1 knockout mice; 10 mg/kg intraperitoneal, single injection, 30 min before test): 133.9 s
Seizure level (Fmr1 knockout mice; 10 mg/kg intraperitoneal): 1.4
Latency (Fmr1 knockout mice; 20 mg/kg intraperitoneal): 123.1 s
Mortality (%) (Fmr1 knockout mice; 20 mg/kg intraperitoneal): 12.5%
Seizure level (Fmr1 knockout mice; 20 mg/kg intraperitoneal): 1.5
Latency (Fmr1 knockout mice; 30 mg/kg intraperitoneal): 180 s
Mortality (%) (Fmr1 knockout mice; 30 mg/kg intraperitoneal): 0%
Seizure level (Fmr1 knockout mice; 30 mg/kg intraperitoneal): 0
IC50 (mGluR5): 5.6 nM
IC50 (mGluR1; HEK293/mGluR1 cell line): > 100000 nM
mGluR5/mGluR1 (mGluR1; selectivity ratio of IC50 values): >17854
concentration at 0.25 h ([1]; cerebrospinal fluid, sampling time 0.25 h, read-out: Cerebrospinal fluid): 25.5 ng/mL
concentration at 1 h ([1]; cerebrospinal fluid, sampling time 1 h, read-out: Cerebrospinal fluid): 21.3 ng/mL
concentration at 3 h ([1]; cerebrospinal fluid, sampling time 3 h, read-out: Cerebrospinal fluid): 7.99 ng/mL
concentration at 0.25 h ([1]; plasma, sampling time 0.25 h, read-out: Plasma): 1240 ng/mL
concentration at 1 h ([1]; plasma, sampling time 1 h, read-out: Plasma): 1130 ng/mL
concentration at 3 h ([1]; plasma, sampling time 3 h, read-out: Plasma): 358 ng/mL
drug concentration ratio in the brain and plasma ([1]; after administration): 1/2
B/P ([1]; sampling time 0.25 h): 1/2
concentration at 0.25 h ([1]; sampling time 0.25 h, read-out: brain): 589 ng/g
B/P ([1]; sampling time 1 h): 1/2
Csf/P ([1]; sampling time 1 h): 1/53
concentration at 1 h ([1]; sampling time 1 h, read-out: brain): 559 ng/g
Csf/P ([1]; sampling time 3 h): 1/45
concentration at 3 h ([1]; sampling time 3 h, read-out: brain): 164 ng/g
number of head twitches (mice [2]): increase
immobility time in the mouse tail suspension test (mice [3]): significantly reduced
